Experimental data reported in ChEMBL document CHEMBL3286224, “Optimization of ketone-based P2Y(12) receptor antagonists as antithrombotic agents: pharmacodynamics and receptor kinetics considerations” (Bioorg Med Chem Lett, 2014).
In brackets after ≈: the same amount, converted by molar mass. Activity calls are given as the source filed them. The calls are words filed in the database; no cut-off is given here.

Assays:
physchem = conditions: buffer, pH 7.4
Description: Lipophilicity, log D of the compound at pH 7.4 by HPLC analysis

P2Y purinoceptor 12 [1] = molecular target: T1, P2Y purinoceptor 12 (Homo sapiens, UniProt Q9H244)
Description: Antagonist activity at P2Y12 receptor (unknown origin) assessed as inhibition of ADP-induced [35S]GTPgammaS binding after 45 mins by scintillation counting analysis

[2] = Apparent permeability from apical to basolateral side in human Caco2 cells at 10 uM at pH 6.5 after 60 mins by LC-MS analysis; type: ADME, cell-based; conditions: Caco-2, pH 6.5
in vitro [3] = conditions: human, liver microsomes
Description: Half life in human liver microsomes at 1 mg/ml

[4] = Aqueous solubility of the compound; type: physicochemical; conditions: buffer
in vitro [5] = conditions: human, Caco-2, pH 7.4
Description: (§1) Apparent permeability from apical to basolateral side in human Caco2 cells at 10 uM at pH 7.4 after 60 mins by LC-MS analysis

Canis familiaris [6] = assay: Toxicity in conscious dog assessed as prolongation of bleeding time at 1.6 umol/kg/min administered via infusion relative to control; type: organism-based, Canis lupus familiaris; conditions: in vivo, iv
Plasma = assay: Fraction unbound in Beagle dog plasma at 37 degC after 18 hrs by equilibrium dialysis technique; type: ADME, cell-free, Canis lupus familiaris
Canis familiaris [7] = assay: Antithrombotic activity in conscious dog assessed as inhibition of platelet aggregation administered via infusion; type: functional, Canis lupus familiaris
[8] = AUC in Beagle dog at 1 umol/kg, iv; type: ADME, organism-based, Canis lupus familiaris; conditions: plasma
Canis familiaris [9] = assay: Toxicity in dog Folt's model of arterial thrombosis assessed as prolongation of bleeding time at 0.015 umol/kg/min; type: organism-based, Canis lupus familiaris; conditions: in vivo, iv
[10] = molecular target: Platelet-activating factor receptor (Homo sapiens) (UniProt P25105); assay: Binding affinity to PAF receptor (unknown origin) at 10 uM
P2Y purinoceptor 12 [11] = molecular target: T1, P2Y purinoceptor 12; assay: Displacement of [125I]AZ11931285 from human P2Y12 receptor expressed in CHOK1 cell membrane after 60 seconds; parameters: species or system CHO-K1
[12] = molecular target: P2Y purinoceptor 1 (Homo sapiens) (UniProt P47900); assay: Binding affinity to P2Y1 receptor (unknown origin) at 10 uM
[13] = molecular target: T2, Thromboxane A2 receptor (Homo sapiens) (UniProt P21731); assay: Binding affinity to thromboxane A2 receptor (unknown origin) at 10 uM
T2 sequence (whole entry): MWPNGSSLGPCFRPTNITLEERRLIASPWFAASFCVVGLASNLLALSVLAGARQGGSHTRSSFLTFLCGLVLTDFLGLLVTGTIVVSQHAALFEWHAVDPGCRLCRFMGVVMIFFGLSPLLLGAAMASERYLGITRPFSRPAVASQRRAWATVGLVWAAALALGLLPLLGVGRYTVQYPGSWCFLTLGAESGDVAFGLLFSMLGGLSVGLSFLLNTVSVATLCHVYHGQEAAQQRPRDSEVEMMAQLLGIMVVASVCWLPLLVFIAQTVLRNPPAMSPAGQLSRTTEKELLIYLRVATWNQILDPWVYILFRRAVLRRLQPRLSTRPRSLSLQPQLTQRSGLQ

P2Y purinoceptor 12 [14] = molecular target: T1, P2Y purinoceptor 12; assay: Displacement of [125I]AZ11931285 from human P2Y12 receptor expressed in CHOK1 cell membrane after 30 seconds; parameters: species or system CHO-K1
[15] = Half life in Beagle dog at 1 umol/kg, iv; type: ADME, organism-based, Canis lupus familiaris; conditions: in vivo
P2Y purinoceptor 12 [16] = molecular target: T1, P2Y purinoceptor 12; assay: Displacement of [125I]AZ11931285 from human P2Y12 receptor expressed in CHOK1 cell membrane after 10 seconds; parameters: species or system CHO-K1
Canis familiaris [17] = organism: Canis familiaris; assay: Antithrombotic activity in dog Folt's model of arterial thrombosis assessed as inhibition of platelet aggregation; type: functional, Canis lupus familiaris
P2Y purinoceptor 12 [18] = molecular target: T1, P2Y purinoceptor 12; assay: Displacement of [125I]AZ11931285 from human P2Y12 receptor expressed in CHOK1 cell membrane after 60 mins; parameters: species or system CHO-K1
Canis familiaris [19] = assay: Toxicity in conscious dog assessed as prolongation of bleeding time at 0.02 to 8700 nmol/kg/min administered via infusion relative to control; type: organism-based, Canis lupus familiaris; conditions: in vivo, iv
Canis familiaris [20] = assay: Toxicity in dog Folt's model of arterial thrombosis assessed as prolongation of bleeding time at 0.001 to 0.1 umol/kg/min; type: organism-based, Canis lupus familiaris; conditions: in vivo, iv
Caco-2 = conditions: human, caco-2, pH 7.4, 1 h, 10 µM
Description: as §1

T1 sequence (Q9H244 whole entry): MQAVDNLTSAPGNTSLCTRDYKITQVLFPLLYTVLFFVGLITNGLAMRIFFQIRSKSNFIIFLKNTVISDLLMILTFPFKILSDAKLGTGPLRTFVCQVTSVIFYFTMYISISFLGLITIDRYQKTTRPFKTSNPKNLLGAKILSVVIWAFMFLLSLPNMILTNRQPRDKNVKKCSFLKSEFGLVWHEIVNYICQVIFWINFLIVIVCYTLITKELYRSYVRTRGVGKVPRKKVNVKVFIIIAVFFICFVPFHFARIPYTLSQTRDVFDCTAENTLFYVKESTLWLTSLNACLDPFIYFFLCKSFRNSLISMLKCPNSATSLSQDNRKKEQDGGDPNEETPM
Sequence of Platelet-activating factor receptor (Homo sapiens) (P25105 whole entry): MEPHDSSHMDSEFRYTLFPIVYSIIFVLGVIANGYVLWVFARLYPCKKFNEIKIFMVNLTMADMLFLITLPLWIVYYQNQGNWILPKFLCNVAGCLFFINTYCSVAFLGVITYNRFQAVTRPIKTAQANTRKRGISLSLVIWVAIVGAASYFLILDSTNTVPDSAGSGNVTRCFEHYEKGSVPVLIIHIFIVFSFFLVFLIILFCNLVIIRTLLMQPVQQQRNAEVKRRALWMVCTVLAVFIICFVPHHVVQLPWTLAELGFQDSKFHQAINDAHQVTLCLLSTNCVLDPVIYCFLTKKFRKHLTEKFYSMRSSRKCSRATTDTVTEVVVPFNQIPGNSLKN
Sequence of P2Y purinoceptor 1 (Homo sapiens) (P47900 whole entry): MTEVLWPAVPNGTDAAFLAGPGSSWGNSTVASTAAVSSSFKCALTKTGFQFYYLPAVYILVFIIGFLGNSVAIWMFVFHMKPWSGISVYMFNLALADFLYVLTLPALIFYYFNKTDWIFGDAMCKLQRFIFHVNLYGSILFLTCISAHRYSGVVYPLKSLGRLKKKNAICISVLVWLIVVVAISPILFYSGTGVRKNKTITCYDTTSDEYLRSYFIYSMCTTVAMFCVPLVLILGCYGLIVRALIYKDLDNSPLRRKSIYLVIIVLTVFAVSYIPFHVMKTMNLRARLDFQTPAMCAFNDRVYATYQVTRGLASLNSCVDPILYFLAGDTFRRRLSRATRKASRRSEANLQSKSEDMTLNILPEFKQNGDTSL

Compound	logD (physchem)	IC50 (P2Y purinoceptor 12 [1]) [nM]	Papp A→B at 1 h, 10 µM [2] [×10⁻⁶ cm/s]	half-life (in vitro [3]) [h]	solubility [4] [µM]	Papp A→B at 1 h, 10 µM (in vitro [5]) [×10⁻⁶ cm/s]	also measured
CCCC(=O)c1cc(C#N)c(N2CCC(C(=O)NS(=O)(=O)Cc3ccccc3)CC2)nc1OC	3	–	–	–	–	–	–
CCCC(=O)c1cc(C#N)c(N2CCC(C(=O)NS(=O)(=O)C(C)c3ccccc3)CC2)nc1C (racemic)	3.3	190	1	> 1.92	> 100	–	–
CCCC(=O)c1cc(C#N)c(N2CCC(C(=O)NS(=O)(=O)Cc3ccccc3)CC2)nc1C	2.8	100	0.3	> 1.92	> 100	0.32	–
CCCC(=O)c1cc(C#N)c(N2CCC(C(=O)NS(=O)(=O)Cc3ccccc3)CC2)nc1CCC	3.7	270	–	–	–	1.2	–
CCCC(=O)c1cc(C#N)c(N2CCC(C(=O)NS(=O)(=O)Cc3ccccc3)CC2)nc1SC	3.1	17	–	> 1.92	> 100	0.3	–
CCCC(=O)c1cc(C#N)c(N2CCC(C(=O)NS(=O)(=O)C3(c4ccccc4)CC3)CC2)nc1SC	–	19	–	> 1.92	78 (≈ 41.1 µg/mL)	2	fold change (FC) (Canis familiaris [6]): 6.7; Fu (Plasma): 0.41%; ID80 (Canis familiaris [7]): 0.052 µmol/kg/min; inhibition (Canis familiaris [7]; Canis lupus familiaris): Dose-dependent effect; AUC [8]: 6.7 µM·h; Activity (Canis familiaris [9]): Toxic; Activity [10]: inactive; IC50 (P2Y purinoceptor 12 [11]): 23 nM; Activity [12]: inactive; Activity [13]: inactive; IC50 (P2Y purinoceptor 12 [14]): 41 nM; half-life [15]: 5.2 h; IC50 (P2Y purinoceptor 12 [16]): 126 nM; ID80 (Canis familiaris [17]): 0.005 µmol/kg/min; IC50 (P2Y purinoceptor 12 [18]): 4 nM
CCCC(=O)c1cc(C#N)c(N2CCC(C(=O)NS(=O)(=O)Cc3ccc(Cl)cc3)CC2)nc1C	3.4	57	0.4	> 1.92	> 100	–	–
CCOC(=O)c1cc(C#N)c(N2CCC(C(=O)NS(=O)(=O)Cc3ccccc3)CC2)nc1C	2.8	–	–	1	–	–	Activity (Canis familiaris [19]): Non-toxic; ID80 (Canis familiaris [7]): 0.44 µmol/kg/min; AUC [8]: 5.9 µM·h; Activity [10]: inactive; IC50 (P2Y purinoceptor 12 [11]): 14 nM; Activity [12]: inactive; Activity [13]: inactive; Activity (Canis familiaris [20]): Non-toxic; IC50 (P2Y purinoceptor 12 [14]): 22 nM; half-life [15]: 5.1 h; IC50 (P2Y purinoceptor 12 [16]): 44 nM; Papp (Caco-2): 1 ×10⁻⁶ cm/s; ID80 (Canis familiaris [17]): 0.009 µmol/kg/min; IC50 (P2Y purinoceptor 12 [18]): 9 nM
CCCC(=O)c1cc(C#N)c(N2CCC(C(=O)NS(=O)(=O)Cc3ccc(C)cc3)CC2)nc1C	3.4	59	1.4	> 1.92	> 100	–	–
CCCC(=O)c1cc(C#N)c(N2CCC(C(=O)NS(=O)(=O)C3(c4ccccc4)CC3)CC2)nc1C	3.9	160	5.2	> 1.92	> 100	–	–
CCCC(=O)c1cc(C#N)c(N2CCC(C(=O)NS(=O)(=O)Cc3ccccc3Cl)CC2)nc1C	3.1	270	0.4	> 1.92	> 100	–	–
CCCC(=O)c1cc(C#N)c(N2CCC(C(=O)NS(=O)(=O)Cc3ccc(C)c(F)c3)CC2)nc1C	3.4	130	0.7	> 1.92	> 100	–	–
CCCC(=O)c1cc(C#N)c(N2CCC(C(=O)NS(=O)(=O)Cc3ccccc3)CC2)nc1CF	2.7	93	–	–	–	< 0.1	–
CCCC(=O)c1cc(C#N)c(N2CCC(C(=O)NS(=O)(=O)Cc3ccc(F)cc3F)CC2)nc1C	3	42	0.3	> 1.92	> 100	–	–
